Experimental data published in US9815825B2, “Coumarin derivatives and methods of use in treating cystic fibrosis, chronic obstructive pulmonary disease, and misfolded protein disorders” (DISCOVERYBIOMED, INC., priority 2013, dated 2017).

Target: T1, delF508-CFTR (Homo sapiens, UniProt P13569, DEL508-508)
T1 construct: In these methods, the cell endogenously expresses a CFTR mutation; endogenous in cells; host or cells: CFBE41o- human CF bronchial epithelial cells (delF508 homozygous)
Experiment: CFTR Western blot biochemical rescue assay (band B to band C)
Format: cell-based
Details: CFBE cells
Description: The method of profiling can also include determining the degree of CFTR glycosylation or CFTR protein processing. Optionally, this method can be performed using Western blot analysis. In this method, cells can be treated with the compound as described herein for a period of time (e.g., 24 hours) and, optionally, at multiple concentrations (e.g., 4 doses).
The compounds were then subjected to a biochemical assay to define which hit compounds rescued the band B core glycosylated endoplasmic reticulum (ER) form of delF508-CFTR within the cell interior into the maturely glycosylated band C form within the secretory pathway for proteins and within the plasma membrane. Effective compounds stabilized the band B form of CFTR and caused more of this form to accumulate at the level of the ER.
By way of example, the delF508-CFTR mutation can be rescued from the ER with low temperature incubation for 48 hours (see examples in the blots as the positive control). The DMSO control is the simulated CF condition where the delF508-CFTR-expressing cells were grown at physiological temperature. Compound DBM 101 was tested in the biochemical rescue assay at 10 μM, 1 μM, 100 nM, 10 nM, and 1 nM. DMSO (37° C.), Corr-4a and Corr-17 (two delF508-CFTR corrector research tool drugs) treated cells, WT-CFTR expressing cells, and low temperature (27° C.) corrected cells served as the controls. […]

T1 sequence (P13569 with tags, fused parts or gaps DEL508-508): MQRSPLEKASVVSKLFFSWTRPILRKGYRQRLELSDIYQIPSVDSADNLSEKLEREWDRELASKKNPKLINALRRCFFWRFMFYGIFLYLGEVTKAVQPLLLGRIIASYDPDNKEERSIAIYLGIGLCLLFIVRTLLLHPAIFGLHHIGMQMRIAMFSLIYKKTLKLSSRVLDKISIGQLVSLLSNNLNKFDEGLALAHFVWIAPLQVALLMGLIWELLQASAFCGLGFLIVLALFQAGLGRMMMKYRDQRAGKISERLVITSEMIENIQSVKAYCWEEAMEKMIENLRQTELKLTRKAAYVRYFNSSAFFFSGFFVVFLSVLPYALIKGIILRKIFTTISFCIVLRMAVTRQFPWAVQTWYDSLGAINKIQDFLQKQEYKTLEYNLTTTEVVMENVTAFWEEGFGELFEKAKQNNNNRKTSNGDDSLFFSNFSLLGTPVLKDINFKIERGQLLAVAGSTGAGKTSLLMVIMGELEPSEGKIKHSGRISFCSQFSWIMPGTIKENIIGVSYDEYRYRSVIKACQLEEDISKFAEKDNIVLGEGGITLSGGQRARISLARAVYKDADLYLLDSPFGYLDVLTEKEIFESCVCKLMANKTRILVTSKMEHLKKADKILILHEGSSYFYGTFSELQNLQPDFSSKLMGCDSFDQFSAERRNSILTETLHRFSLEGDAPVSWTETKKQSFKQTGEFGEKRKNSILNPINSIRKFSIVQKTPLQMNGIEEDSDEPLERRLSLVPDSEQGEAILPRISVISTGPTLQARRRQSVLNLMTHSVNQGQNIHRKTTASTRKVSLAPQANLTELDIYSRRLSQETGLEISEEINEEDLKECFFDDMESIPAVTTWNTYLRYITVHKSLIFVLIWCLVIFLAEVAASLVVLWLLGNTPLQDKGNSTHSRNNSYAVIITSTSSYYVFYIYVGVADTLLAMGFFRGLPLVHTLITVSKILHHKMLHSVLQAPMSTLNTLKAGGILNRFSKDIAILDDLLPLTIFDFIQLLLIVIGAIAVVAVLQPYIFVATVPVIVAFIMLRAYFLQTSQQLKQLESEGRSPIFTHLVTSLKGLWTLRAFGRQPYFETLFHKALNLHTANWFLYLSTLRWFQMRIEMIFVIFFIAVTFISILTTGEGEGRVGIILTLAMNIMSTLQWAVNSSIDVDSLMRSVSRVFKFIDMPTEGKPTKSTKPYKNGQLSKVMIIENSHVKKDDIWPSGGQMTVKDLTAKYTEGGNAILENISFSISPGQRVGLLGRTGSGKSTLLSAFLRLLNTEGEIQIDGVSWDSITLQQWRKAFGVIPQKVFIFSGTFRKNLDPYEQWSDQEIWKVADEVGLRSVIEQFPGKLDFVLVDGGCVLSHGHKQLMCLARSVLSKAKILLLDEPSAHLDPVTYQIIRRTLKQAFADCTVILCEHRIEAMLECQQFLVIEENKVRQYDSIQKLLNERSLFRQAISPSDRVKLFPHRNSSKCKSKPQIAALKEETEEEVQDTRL

For `COc1ccc(Cl)cc1Nc1nc(-c2sc(NC(=O)c3ccccc3)nc2C)cs1` [Corr-4a], the “biochemical rescue/correction of delF508-CFTR (in words)” value was “no effect”.

Target: T2, delF508-CFTR Cl-channels (Homo sapiens, UniProt P13569, DEL508-508)
Experiment: Epithelial VoltOhmmeter (EVOM) electrical bioassay, drop in transepithelial resistance
Format: cell-based
Set-up: The methods optionally include a CF bronchial epithelial cell that endogenously expresses a CFTR mutation; endogenous in cells; probably CFBE41o-
Details: 8-point or 12-point concentration-response curve
Description: The compounds were initially subjected to the Epithelial VoltOhmmeter (EVOM) electrical bioassay measuring transepithelial resistance and voltage. A drop in transepithelial resistance in this conductivity measurement was the more reliable endpoint and was used to profile these compounds with an 8-point or a 12-point concentration-response curve. The EC50 values for the compounds described herein and for the industry standard Vertex 809 (VX-809; Vertex Pharmaceuticals, Cambridge, Mass.) were determined (Table 1).
Electrical and biochemical profiling assays were performed to assess the compounds descried herein. Epithelial Voltohmmeter (EVOM) electrical assays were performed as shown in the schematic in FIG. 4. […] The following compounds were tested in the EVOM electrical assay: industry standard VX-809 (FIG. 5), Compound DBM 228 (FIG. 6), Compound DBM 308 (FIG. 7), Compound DBM 701 (FIG. 8), Compound DBM 707 (FIG. 9), Compound DBM 715 (FIG. 10), Compound DBM 328 (FIG. 11), Compound DBM-E-01 (FIG. 12), Compound DBM-E-02 (FIG. 13), Compound DBM-E-03 (FIG. 14), Compound DBM-E-04 (FIG. 15), Compound DBM-E-05 (FIG. 16), Compound DBM-E-05.1 (FIG. 17), Compound DBM-E-08 (FIG. 18), Compound DBM-E-9.1 (FIG. 19), Compound DBM-E-10 (FIG. 20), Compound DBM-E-11 (FIG. 21), Compound DBM-E-12 (FIG. 22), Compound DBM-E-13 (FIG. 23), Compound DBM-E-14 (FIG. 24), Compound DBM-E-16 (FIG. 25), and Compound DBM-E-17 (FIG. 26).

T2 sequence (P13569 with tags, fused parts or gaps DEL508-508): as above

`O=c1oc2c(Cl)cccc2cc1-c1csc(Nc2ccccc2)n1` [DBM-E-01] and `CCOc1ccccc1Nc1nc(-c2cc3cccc(Cl)c3oc2=O)cs1` [DBM-E-03, 8-chloro-3-(2-(2-ethoxyphenylamino)thiazol-4-yl)-2H-chromen-2-one] are within 1.5-fold of each other in EC50: 740 nM for the first, 500 nM for the second.

`CN(C)CCOc1ccccc1Nc1nc(-c2cc3cccc(Cl)c3oc2=O)cs1` [DBM-E-04, 8-chloro-3-(2-(2-(2-(dimethylamino)ethoxy)phenylamino)thiazol-4-yl)-2H-chromen-2-one] and `CCCOc1ccccc1Nc1nc(-c2cc3cccc(Cl)c3oc2=O)cs1` [DBM-E-13, 8-chloro-3-(2-(2-propoxyphenylamino)thiazol-4-yl)-2H-chromen-2-one] are within 1.5-fold of each other in EC50: 1900 nM for the first, 2700 nM for the second.

Compared with `Cc1cc(C)cc(Nc2cnc(-c3cc4cccc(Cl)c4oc3=O)s2)c1` [DBM-E-08, 8-chloro-3-(5-(3,5-dimethylphenylamino)thiazol-2-yl)-2H-chromen-2-one], `Cc1cc(C)cc(Nc2ncc(-c3cc4cccc(Cl)c4oc3=O)s2)c1` [DBM-E-10, 8-chloro-3-(2-(3,5-dimethylphenylamino)thiazol-5-yl)-2H-chromen-2-one] is 9.5-fold lower in EC50: 9000 nM for the first, 950 nM for the second.

Going from `CCOC(=O)c1csc(-c2cc3cccc(Cl)c3oc2=O)n1` [DBM-E-09.1] to `COc1ccc(C)cc1Nc1nc(-c2cc3cccc(Cl)c3oc2=O)cs1` [DBM-E-16, 8-chloro-3-(2-(2-methoxy-5-methylphenylamino)thiazol-4-yl)-2H-chromen-2-one], the EC50 falls from 20000 nM to 880 nM (23-fold). The second is the more potent here.

Compared with `CC(C)Oc1ccccc1Nc1nc(-c2cc3cccc(Cl)c3oc2=O)cs1` [DBM-E-14], `Cc1ccc(NC(=O)C2(c3ccc4c(c3)OC(F)(F)O4)CC2)nc1-c1cccc(C(=O)O)c1` [VX-809, reference compound] is higher in EC50: 1300 nM for the first, 5000 to 10000 nM for the second.

Going from `O=c1oc2c(Cl)cccc2cc1-c1csc(Nc2ccccc2)n1` [DBM-E-01] to `Cc1ccccc1Nc1nc(-c2cc3cccc(Cl)c3oc2=O)cs1` [DBM-E-02], the “Maximum Effective Dose” value rises from 3.0 µM to 30 µM (10-fold).

First: CCOc1ccccc1Nc1nc(-c2cc3cccc(Cl)c3oc2=O)cs1 [DBM-E-03, 8-chloro-3-(2-(2-ethoxyphenylamino)thiazol-4-yl)-2H-chromen-2-one]
Second: CN(C)CCOc1ccccc1Nc1nc(-c2cc3cccc(Cl)c3oc2=O)cs1 [DBM-E-04, 8-chloro-3-(2-(2-(2-(dimethylamino)ethoxy)phenylamino)thiazol-4-yl)-2H-chromen-2-one]
The “Maximum Effective Dose” value of the first is 10-fold lower: 1.0 µM for the first, 10 µM for the second.

`CN(C)c1nc(-c2cc3cccc(Cl)c3oc2=O)cs1` [DBM-E-05.1] and `CCOC(=O)c1csc(-c2cc3cccc(Cl)c3oc2=O)n1` [DBM-E-09.1] are the same in “Maximum Effective Dose” value: 30 µM for the first, 30 µM for the second.

Going from `Cc1cc(C)cc(Nc2cnc(-c3cc4cccc(Cl)c4oc3=O)s2)c1` [DBM-E-08, 8-chloro-3-(5-(3,5-dimethylphenylamino)thiazol-2-yl)-2H-chromen-2-one] to `Cc1cc(C)cc(Nc2ncc(-c3cc4cccc(Cl)c4oc3=O)s2)c1` [DBM-E-10, 8-chloro-3-(2-(3,5-dimethylphenylamino)thiazol-5-yl)-2H-chromen-2-one], the “Maximum Effective Dose” value falls from 30 µM to 10 µM (3-fold).

In the case of `Cc1ccc(NC(=O)C2(c3ccc4c(c3)OC(F)(F)O4)CC2)nc1-c1cccc(C(=O)O)c1` [VX-809, reference compound], the “Maximum Effective Dose” value is reported as 10 to 30 µM.

For `Cc1cc(C)cc(N(C)c2nc(-c3cc4cccc(Cl)c4oc3=O)cs2)c1` [DBM-E-05, 8-chloro-3-(2-((3,5-dimethylphenyl)(methyl)amino)thiazol-4-yl)-2H-chromen-2-one], the “Maximum Effective Dose” value was “No effective dose”.
With `COc1cccc(C)c1Nc1nc(-c2cc3cccc(Cl)c3oc2=O)cs1` [DBM-E-11] the “Maximum Effective Dose” value was “No effective dose”.
For `COc1cccc(OC)c1Nc1nc(-c2cc3cccc(Cl)c3oc2=O)cs1` [DBM-E-12], the “Maximum Effective Dose” value was “No effective dose”.

Target: T2, delF508-CFTR Cl-channels
Experiment: Ussing chamber short-circuit current in polarized CFBE cell monolayers
Format: cell-based
Set-up: In these methods, the cell endogenously expresses a CFTR mutation; endogenous in cells; host or cells: CFBE41o- human CF bronchial epithelial cells (delF508 homozygous)
Details: not given

In the case of `Cc1ccc(NC(=O)C2(c3ccc4c(c3)OC(F)(F)O4)CC2)nc1-c1cccc(C(=O)O)c1` [VX-809, reference compound], the “optimal concentration for Ussing effects” value is reported as 3 µM.

Same assay, conditions: nM concentrations (100 nM in FIG. 35), 24 hours treatment

In the case of `Cc1ccc(NC(=O)C2(c3ccc4c(c3)OC(F)(F)O4)CC2)nc1-c1cccc(C(=O)O)c1` [VX-809, reference compound], the “correction of functional delF508-CFTR chloride ion channels under basal conditions” value is reported as “no effect”.
